From article PMC6545112 (Journal of medicinal chemistry, 2018)
Entries after “also recorded” stand apart in the source; their conditions may differ. Where two headings read alike, the source gives them in different places.

How the values were obtained:
RS4;11 cell line = test: cell growth inhibition, WST-8 assay, RS4; format: cell-based, human; conditions: for IC50: read-out: IC50 (nM) in inhibition of cell growth in the RS4;11 cell line, 4 days, WST-8 assay
[1] = biological target: MDM2 and p53 proteins in RS4;11 cells (Homo sapiens, UniProt Q00987); test: western blotting analysis of MDM2 and p53 proteins in RS4; format: cell-based; conditions: 2 h treatment; for effect on MDM2 and p53 protein levels (western blotting): RS4;11 cells
MDM2 and p53 proteins in RS4;11 cells, sequence (Q00987 whole entry): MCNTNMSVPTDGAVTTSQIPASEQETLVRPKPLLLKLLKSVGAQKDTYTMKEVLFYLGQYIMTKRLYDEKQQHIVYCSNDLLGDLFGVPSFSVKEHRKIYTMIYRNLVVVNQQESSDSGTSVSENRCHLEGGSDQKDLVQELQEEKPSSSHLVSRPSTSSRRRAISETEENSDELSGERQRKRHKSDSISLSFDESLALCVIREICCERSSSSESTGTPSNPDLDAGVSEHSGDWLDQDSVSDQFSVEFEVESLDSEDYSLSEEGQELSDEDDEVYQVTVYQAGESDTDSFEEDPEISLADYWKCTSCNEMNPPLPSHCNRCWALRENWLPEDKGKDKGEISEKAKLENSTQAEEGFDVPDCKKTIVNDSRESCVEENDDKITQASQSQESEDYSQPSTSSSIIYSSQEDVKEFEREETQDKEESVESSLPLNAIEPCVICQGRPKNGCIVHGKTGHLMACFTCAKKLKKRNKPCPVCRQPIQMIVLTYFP

Compound: O=C1CCC(N2C(=O)c3cccc(NCCCCNC(=O)c4ccc(NC(=O)[C@@H]5NC6(CCCCC6)[C@@]6(C(=O)Nc7cc(Cl)ccc76)[C@H]5c5cccc(Cl)c5F)cc4)c3C2=O)C(=O)N1 (some centres unmarked) [Compound 1, (3’R,4’S,5’R)-6”-Chloro-4’-(3-Chloro-2-fluorophenyl)-N-(4-((4-((2-(2,6-dioxopiperidin-3-yl)-1,3-dioxoisoindolin-4-yl)amino)butyl)carbamoyl)phenyl)-2”-oxodispiro[cyclohexane-1,2’-pyrrolidine-3’,3”-indoline]-5’-carboxamide]
- times more potent than MI-1061 and MI-1242 in inhibition of cell growth (RS4;11 cell line; RS4;11): about 10 times
- concentration that reduces/depletes MDM2 protein ([1]; RS4;11 / leukemia cells): 3 nM
- effect on MDM2 and p53 protein levels (western blotting) [1]: effectively reduce the level of MDM2 protein

Compound: O=C1CCC(N2C(=O)c3cccc(NCCOCCOCCNC(=O)c4ccc(NC(=O)[C@@H]5NC6(CCCCC6)[C@@]6(C(=O)Nc7cc(Cl)ccc76)[C@H]5c5cccc(Cl)c5F)cc4)c3C2=O)C(=O)N1 (some centres unmarked) [Compound 2, (3’R,4’S,5’R)-6”-Chloro-4’-(3-Chloro-2-fluorophenyl)-N-(4-((2-(2-(2-((2-(2,6-dioxopiperidin-3-yl)-1,3-dioxoisoindolin-4-yl)amino)ethoxy)ethoxy)-ethyl)carbamoyl)phenyl)-2”-oxodispiro[cyclohexane-1,2’-pyrrolidine-3’,3”-indoline]-5’-carboxamide]
- times more potent than MI-1061 and MI-1242 in inhibition of cell growth (RS4;11 cell line; RS4;11): about 10 times
- effect on MDM2 and p53 protein levels (western blotting) [1]: effectively reduce the level of MDM2 protein; also recorded: effectively induce degradation of MDM2 and accumulation of p53

Compound: O=C1CCC(N2C(=O)c3cccc(NCCNC(=O)c4ccc(NC(=O)[C@@H]5NC6(CCCCC6)[C@@]6(C(=O)Nc7cc(Cl)ccc76)[C@H]5c5cccc(Cl)c5F)cc4)c3C2=O)C(=O)N1 (some centres unmarked) [Compound 4, (3’R,4’S,5’R)-6”-Chloro-4’-(3-Chloro-2-fluorophenyl)-N-(4-((2-((2-(2,6-dioxopiperidin-3-yl)-1,3-dioxoisoindolin-4-yl)amino)ethyl)carbamoyl)phenyl)-2”-oxodispiro[cyclohexane-1,2’-pyrrolidine-3’,3”-indoline]-5’-carboxamide]
- effect on MDM2 and p53 protein levels (western blotting) [1]: induce degradation of MDM2 and accumulation of p53

Compound: O=C1CCC(N2C(=O)c3cccc(NCCCNC(=O)c4ccc(NC(=O)[C@@H]5NC6(CCCCC6)[C@@]6(C(=O)Nc7cc(Cl)ccc76)[C@H]5c5cccc(Cl)c5F)cc4)c3C2=O)C(=O)N1 (some centres unmarked) [Compound 5, (3’R,4’S,5’R)-6”-Chloro-4’-(3-Chloro-2-fluorophenyl)-N-(4-((3-((2-(2,6-dioxopiperidin-3-yl)-1,3-dioxoisoindolin-4-yl)amino)propyl)carbamoyl)phenyl)-2”-oxodispiro[cyclohexane-1,2’-pyrrolidine-3’,3”-indoline]-5’-carboxamide]
- effect on MDM2 and p53 protein levels (western blotting) [1]: induce degradation of MDM2 and accumulation of p53

Compound: O=C1CCC(N2C(=O)c3cccc(NCCCCCNC(=O)c4ccc(NC(=O)[C@@H]5NC6(CCCCC6)[C@@]6(C(=O)Nc7cc(Cl)ccc76)[C@H]5c5cccc(Cl)c5F)cc4)c3C2=O)C(=O)N1 (some centres unmarked) [Compound 6, (3’R,4’S,5’R)-6”-Chloro-4’-(3-Chloro-2-fluorophenyl)-N-(4-((5-((2-(2,6-dioxopiperidin-3-yl)-1,3-dioxoisoindolin-4-yl)amino)pentyl)carbamoyl)phenyl)-2”-oxodispiro[cyclohexane-1,2’-pyrrolidine-3’,3”-indoline]-5’-carboxamide]
- effect on MDM2 and p53 protein levels (western blotting) [1]: induce degradation of MDM2 and accumulation of p53

Compound: O=C1CCC(N2C(=O)c3cccc(NCCCCCCNC(=O)c4ccc(NC(=O)[C@@H]5NC6(CCCCC6)[C@@]6(C(=O)Nc7cc(Cl)ccc76)[C@H]5c5cccc(Cl)c5F)cc4)c3C2=O)C(=O)N1 (some centres unmarked) [Compound 7, (3’R,4’S,5’R)-6”-Chloro-4’-(3-Chloro-2-fluorophenyl)-N-(4-((6-((2-(2,6-dioxopiperidin-3-yl)-1,3-dioxoisoindolin-4-yl)amino)hexyl)carbamoyl)phenyl)-2”-oxodispiro[cyclohexane-1,2’-pyrrolidine-3’,3”-indoline]-5’-carboxamide]
- effect on MDM2 and p53 protein levels (western blotting) [1]: induce degradation of MDM2 and accumulation of p53

Compound: O=C1CCC(N2C(=O)c3cccc(NCCCCCCCNC(=O)c4ccc(NC(=O)[C@@H]5NC6(CCCCC6)[C@@]6(C(=O)Nc7cc(Cl)ccc76)[C@H]5c5cccc(Cl)c5F)cc4)c3C2=O)C(=O)N1 (some centres unmarked) [Compound 8, (3’R,4’S,5’R)-6”-Chloro-4’-(3-Chloro-2-fluorophenyl)-N-(4-((7-((2-(2,6-dioxopiperidin-3-yl)-1,3-dioxoisoindolin-4-yl)amino)heptyl)carbamoyl)phenyl)-2”-oxodispiro[cyclohexane-1,2’-pyrrolidine-3’,3”-indoline]-5’-carboxamide]
- times less potent than 1 in inhibition of cell growth (RS4;11 cell line; RS4;11): 10 times
- effect on MDM2 and p53 protein levels (western blotting) [1]: induce degradation of MDM2 and accumulation of p53

Compound: O=C1CCC(N2C(=O)c3cccc(NCCOCCNC(=O)c4ccc(NC(=O)[C@@H]5NC6(CCCCC6)[C@@]6(C(=O)Nc7cc(Cl)ccc76)[C@H]5c5cccc(Cl)c5F)cc4)c3C2=O)C(=O)N1 (some centres unmarked) [Compound 9, (3’R,4’S,5’R)-6”-Chloro-4’-(3-Chloro-2-fluorophenyl)-N-(4-((2-(2-((2-(2,6-dioxopiperidin-3-yl)-1,3-dioxoisoindolin-4-yl)amino)ethoxy)ethyl)carbamoyl)phenyl)-2”-oxodispiro[cyclohexane-1,2’-pyrrolidine-3’,3”-indoline]-5’-carboxamide]
- effect on MDM2 and p53 protein levels (western blotting) [1]: effectively induce degradation of MDM2 and accumulation of p53

Compound: O=C1CCC(N2C(=O)c3cccc(NCCOCCOCCOCCNC(=O)c4ccc(NC(=O)[C@@H]5NC6(CCCCC6)[C@@]6(C(=O)Nc7cc(Cl)ccc76)[C@H]5c5cccc(Cl)c5F)cc4)c3C2=O)C(=O)N1 (some centres unmarked) [Compound 10, (3’R,4’S,5’R)-6”-Chloro-4’-(3-Chloro-2-fluorophenyl)-N-(4-((2-(2-(2-(2-((2-(2,6-dioxopiperidin-3-yl)-1,3-dioxoisoindolin-4-yl)amino)ethoxy)ethoxy)ethoxy)-ethyl)carbamoyl)phenyl)-2”-oxodispiro[cyclohexane-1,2’-pyrrolidine-3’,3”-indoline]-5’-carboxamide]
- IC50 (RS4;11 cell line; Homo sapiens, RS4-11, 96 h): 4.5 nM
- effect on MDM2 and p53 protein levels (western blotting) [1]: effectively induce degradation of MDM2 and accumulation of p53

Compound: O=C1CCC(N2C(=O)c3cccc(CCCCCNC(=O)c4ccc(NC(=O)[C@@H]5NC6(CCCCC6)[C@@]6(C(=O)Nc7cc(Cl)ccc76)[C@H]5c5cccc(Cl)c5F)cc4)c3C2=O)C(=O)N1 (some centres unmarked) [Compound 11, (3’R,4’S,5’R)-6”-Chloro-4’-(3-Chloro-2-fluorophenyl)-N-(4-((5-(2-(2,6-dioxopiperidin-3-yl)-1,3-dioxoisoindolin-4-yl)pentyl)carbamoyl)phenyl)-2”-oxodispiro[cyclohexane-1,2’-pyrrolidine-3’,3”-indoline]-5’-carboxamide]
- times less potent than 1 in inhibition of cell growth (RS4;11 cell line; RS4;11): 3 times

Compound: O=C1CCC(N2Cc3c(C#CCCNC(=O)c4ccc(NC(=O)[C@@H]5NC6(CCCCC6)[C@@]6(C(=O)Nc7cc(Cl)ccc76)[C@H]5c5cccc(Cl)c5F)cc4)cccc3C2=O)C(=O)N1 (some centres unmarked) [Compound 15, (3’R,4’S,5’R)-6”-Chloro-4’-(3-chloro-2-fluorophenyl)-N-(4-((4-(2-(2,6-dioxopiperidin-3-yl)-1-oxoisoindolin-4-yl)but-3-yn-1-yl)carbamoyl)phenyl)-2”-oxodispiro[cyclohexane-1,2’-pyrrolidine-3’,3”-indoline]-5’-carboxamide]
- times less potent than MD-224 in inhibition of cell growth (RS4;11 cell line; RS4;11): 2 times

Compound: O=C1CCC(N2Cc3c(C#CCCCNC(=O)c4ccc(NC(=O)[C@H]5NC6(CCCCC6)[C@]6(C(=O)Nc7cc(Cl)ccc76)[C@@H]5c5cccc(Cl)c5F)cc4)cccc3C2=O)C(=O)N1 (some centres unmarked) [Compound 21, (3’S,4’R,5’S)-6”-Chloro-4’-(3-chloro-2-fluorophenyl)-N-(4-((5-(2-(2,6-dioxopiperidin-3-yl)-1-oxoisoindolin-4-yl)pent-4-yn-1-yl)carbamoyl)phenyl)-2”-oxodispiro[cyclohexane-1,2’-pyrrolidine-3’,3”-indoline]-5’-carboxamide]
- activity in inhibition of cell growth (in words) (RS4;11 cell line; RS4;11): minimal activity
- effect on MDM2 and p53 protein levels (western blotting) [1]: fails to induce any MDM2 degradation

Compound: CN1C(=O)CCC(N2Cc3c(C#CCCCNC(=O)c4ccc(NC(=O)[C@@H]5NC6(CCCCC6)[C@@]6(C(=O)Nc7cc(Cl)ccc76)[C@H]5c5cccc(Cl)c5F)cc4)cccc3C2=O)C1=O (some centres unmarked) [Compound 22, (3’R,4’S,5’R)-6”-Chloro-4’-(3-chloro-2-fluorophenyl)-N-(4-((5-(2-(1-methyl-2,6-dioxopiperidin-3-yl)-1-oxoisoindolin-4-yl)pent-4-yn-1-yl)carbamoyl)phenyl)-2”-oxodispiro[cyclohexane-1,2’-pyrrolidine-3’,3”-indoline]-5’-carboxamide]
- times less potent than MD-224 in inhibition of cell growth (RS4;11 cell line; RS4;11): > 100 times
- effect on MDM2 and p53 protein levels (western blotting) [1]: completely inactive in inducing MDM2 degradation

Compound: CNC(=O)c1ccc(NC(=O)[C@@H]2NC3(CCCCC3)[C@@]3(C(=O)Nc4cc(Cl)ccc43)[C@H]2c2cccc(Cl)c2F)cc1 [MI-1242]
- effect on MDM2 and p53 protein levels (western blotting) [1]: inducing accumulation of both MDM2 and p53

Compound: (3’R,4’S,5’R)-6”-Chloro-4’-(3-Chloro-2-fluorophenyl)-N-(4-((5-(2-(2,6-dioxopiperidin-3-yl)-1-oxoisoindolin-5-yl)pent-4-yn-1-yl)carbamoyl)phenyl)-2”-oxodispiro[cyclohexane-1,2’-pyrrolidine-3’,3”-indoline]-5’-carboxamide [Compound 16]
- times less potent than MD-224 in inhibition of cell growth (RS4;11 cell line; RS4;11): 3 times
- IC50 (RS4;11 cell line): 5 ± 2 nM
- effect on MDM2 and p53 protein levels (western blotting) [1]: effectively induce degradation of MDM2 and accumulation of p53

Compound: (3’R,4’S,5’R)-6”-Chloro-4’-(3-chloro-2-fluorophenyl)-N-(4-((4-((2-(2,6-dioxopiperidin-3-yl)-1-oxoisoindolin-4-yl)amino)butyl)carbamoyl)phenyl)-2”-oxodispiro[cyclohexane-1,2’-pyrrolidine-3’,3”-indoline]-5’-carboxamide [Compound 12]
- times more potent than 1 in inhibition of cell growth (RS4;11 cell line; RS4;11): twice as potent as 1
- IC50 (RS4;11 cell line): 5 ± 5 nM
